Laboratory results from US20100216249A1, “DNA-Based Biosensors” (ISIS INNOVATION LIMITED, priority 2007, published 2010).

How the values were obtained:
lacR = lacR (Escherichia coli, UniProt P03023); test: sensing a lactose analog (IPTG) using DNA biosensors (lacR-dependent DNA coincidence); format: binding, bacteria
Description: (§1) An example of sensing the concentration of a small molecule using protein-dependent DNA coincidence. In the absence (or low concentration) of the molecule to be sensed (yellow triangle), the transcription factor binds to DNA with high affinity and gives rise to DNA coincidence detected by single-molecule fluorescence.
FIG. 16. Sensing a lactose analog (IPTG) using DNA biosensors. […] A plot of the number of molecules with intermediate stoichiometry can be used as a calibration curve to identify the concentration of the small molecule, provided that the concentration is not much higher or much lower than the Kd for the interaction of the small molecule with the DNA-binding protein.

lac repressor (lacR) = lac repressor (lacR) (Escherichia coli, UniProt P03023); test: Sensing a lactose analog (IPTG) using DNA biosensors: IPTG-dependent loss of lacR-assembled full DNA site, detected by single-molecule fluorescence (protein-dependent DNA coincidence); format: binding, bacteria; conditions: FIG. 16; IPTG interaction with lacR (tetrameric bacterial repressor); fraction of bursts with intermediate stoichiometry vs IPTG concentration
Description: For the purposes of our assay, the fluorophores can be placed far from the protein binding site (as long as the fluorophores are spaced by less than approximately 200 base pairs); as such, there is no perturbation of protein-DNA binding and no information about the exact structure of the protein-DNA complex is necessary. The concept is described in FIG. 3. In the absence of a DNA-binding protein, for example, a dimeric protein, such as a dimeric transcription factor, two DNA fragments with short and complementary single-stranded DNA tails diffuse independently in solution (top panel). In the presence of a DNA-binding protein that binds specifically to the fully assembled DNA site, the two DNA fragments diffuse as a single molecular complex (a 1:1 donor-acceptor species); such a species can be easily differentiated from the free DNA half-sites and can be counted, giving information about the concentration of the specific DNA-binding protein. […]
as §1, with “fluorescence. […]” for “fluorescence.”

Sequence of lacR (P03023 whole entry): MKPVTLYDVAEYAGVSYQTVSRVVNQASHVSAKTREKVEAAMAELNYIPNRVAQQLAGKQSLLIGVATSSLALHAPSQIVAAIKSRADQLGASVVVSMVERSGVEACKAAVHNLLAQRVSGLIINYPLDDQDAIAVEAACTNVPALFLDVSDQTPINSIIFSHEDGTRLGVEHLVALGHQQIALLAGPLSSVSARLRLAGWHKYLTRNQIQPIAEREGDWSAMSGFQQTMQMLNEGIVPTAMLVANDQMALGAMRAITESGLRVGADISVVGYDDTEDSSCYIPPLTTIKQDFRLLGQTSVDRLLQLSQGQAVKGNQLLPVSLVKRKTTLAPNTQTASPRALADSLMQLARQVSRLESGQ
Sequence of lac repressor (lacR) (P03023 whole entry): as above

With `CC(C)S[C@@H]1O[C@H](CO)[C@H](O)[C@H](O)[C@H]1O` [IPTG] the “lacR assembly of the full DNA site” value (lacR; high concentration of IPTG, relative fraction of bursts with intermediate stoichiometry decreases) was “does not assemble the full site”, the “lacR assembly of the full DNA site” value (lacR; low concentration of IPTG, relative fraction of bursts with intermediate stoichiometry increases) was “does bind and assemble the full site” and the Kd (lac repressor (lacR)) was 1000 to 2000 nM.
